Results as given in patent publication US6855309B2, “Cascade polymer bound complexing compounds, their complexes and conjugates, processes for their production, and pharmaceutical agents containing them” (Schering, AG, priority 1989, dated 2005).
Like-named read-outs stand apart in the source and are kept apart here.

Experiments:
[1] = rat, in vivo; cited from earlier work
[2] = tested on: mice; assay: LD50 i.v. in mice; type: in vivo
[3] = Osmolality; type: physicochemical; settings: 0.5 mol/l at 37° C.
[4] = in vivo, cited from earlier work
[5] = Concentration-time curve in blood after intravenous administration in rats; type: in vivo; settings: 0.2 mmol/kg intravenous
[6] = rat, in vivo; cited from earlier work; remark: listed apart in the source

Albumin-GdDTPA
dose eliminated [1]: 20 % of the dose

CNC[C@H](O)[C@@H](O)[C@H](O)[C@H](O)CO.CNC[C@H](O)[C@@H](O)[C@H](O)[C@H](O)CO.O=C([O-])CN(CCN(CC(=O)[O-])CC(=O)O)CCN(CC(=O)[O-])CC(=O)O.[Gd+3] [Magnevist, GdDTPA/dimeglumine]
LD50 [2]: ≤ 10 mmol/kg
Osmolality [3]: 1.96 osmol/kg
route of elimination ([4]; iv): eliminated, upon intravenous injection, by way of the kidneys
distribution after intravenous administration [4]: distributed after intravenous administration uniformly between the vasal and interstitial spaces
distribution space [5]: distributed in the extracellular space

polylysine-GdDTPA
route of elimination [6]: eliminated unchanged by glomerular filtration via the kidneys
